These are literature values, as cited in patent publication US10272130B1, “Oral anaerobic glutathione supplement in liposome suspension” (priority 2017, dated 2019).

Structures are written as SMILES.

For series [1] the following is noted: in vivo.

Consider `CC(=O)N[C@@H](CS)C(=O)O` [NAC, N-acetylcysteine], for which, in series [1], the half-life result is listed as “approximately 5.6 hours” and the “renally excreted by the body” value is 30%. For the same compound, the pregnancy risk category result (in vivo) is “category B”. Further, the “adverse effects associated with administration” value (orally administered or inhaled) was “drowsiness, stomatitis, clamminess, rhinorrhea, and hemoptysis”.
